# Measured values taken from publication PMC10629583, “Specific inhibition of an anticancer target, polo-like kinase 1, by allosterically dismantling its mechanism of substrate recognition” (Proceedings of the National Academy of Sciences of the …, 2023).
# “And” between values parts separate entries of the source, which are not always exact repeats. Equal entries are not always repeated.
# Tests used:
# Plk2 PBD (PBD2) = target: T1, Plk2 PBD (PBD2) (Homo sapiens, UniProt Q9NYY3); assay: FP-based inhibition assay, PBD2; assay type: binding; conditions: bacterially expressed purified PBD, FITC-ligand 15 nM, PBD at EC85
# T1 construct: Purification of PBD2-His (355–685) (pKM3358) and its S652F mutant (pKM7980); His (C); made in house; host or cells: bacteria (E. coli)
# T1 sequence (Q9NYY3 355-685): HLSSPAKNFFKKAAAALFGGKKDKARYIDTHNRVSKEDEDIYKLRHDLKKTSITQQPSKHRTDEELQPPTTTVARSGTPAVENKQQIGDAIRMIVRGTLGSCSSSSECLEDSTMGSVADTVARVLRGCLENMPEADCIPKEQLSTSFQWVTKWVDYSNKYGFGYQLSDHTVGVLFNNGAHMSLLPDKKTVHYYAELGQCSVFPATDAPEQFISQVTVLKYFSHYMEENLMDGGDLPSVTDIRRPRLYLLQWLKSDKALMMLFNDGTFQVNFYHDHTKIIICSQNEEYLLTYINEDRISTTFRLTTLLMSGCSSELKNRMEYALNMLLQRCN
# Experimental: (§1) FP assays were carried out essentially as described previously ([35], [36]). […] All the samples were analyzed approximately 30 min after reaction in a 384-well format using the SpectraMax Paradigm multimode microplate detection platform (Molecular Devices). Data were analyzed after carrying out at least three independent experiments using GraphPad Prism software version 8.
# PBD1 F559R mutant = target: T2, PBD1 F559R mutant (Homo sapiens, UniProt P53350, F559R); assay: FP-based binding/inhibition assay, PBD1 F559R; conditions: PBD1 F559R, 2 µM protein
# T2 construct: constructs expressing PBD1 (residues 345–603) WT (pKM7650); His; TEV site (N); made in house; host or cells: bacteria (E. coli)
# T2 sequence (P53350 345-603 F559R): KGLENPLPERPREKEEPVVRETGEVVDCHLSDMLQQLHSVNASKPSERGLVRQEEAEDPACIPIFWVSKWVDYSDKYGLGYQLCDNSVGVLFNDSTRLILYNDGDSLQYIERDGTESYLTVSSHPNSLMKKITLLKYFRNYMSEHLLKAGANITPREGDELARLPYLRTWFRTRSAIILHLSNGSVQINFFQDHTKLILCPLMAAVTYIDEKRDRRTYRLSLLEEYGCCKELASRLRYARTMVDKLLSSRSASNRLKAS
# Experimental: (§2) FP assays were carried out essentially as described previously ([35], [36]). FITC-conjugated ligands (15 nM) were mixed with PBDs at their EC85 concentrations. All the samples were analyzed approximately 30 min after reaction in a 384-well format using the SpectraMax Paradigm multimode microplate detection platform (Molecular Devices). Data were analyzed after carrying out at least three independent experiments using GraphPad Prism software version 8.
# (§3) Fig. S4. Generation of F559 mutants for in vitro and cell-based assays in Fig. 4. (A) SDS-PAGE showing the proteins used for the FP assays in Fig. 4 A and B. CBB, a Coomassie Brilliant Blue– stained gel. (B) Summary of Kd and EC85 values for PBD1 WT and mutants. The Kd values for PBD1 WT and mutants were determined after extrapolating them from the binding curves as the concentration at which 50% of the FITC-Ahx-DPPLHSpTAI-NH2 are PBD1-bound. The EC85 values indicate the effective concentration of 85% of the maximal concentration calculated for each protein. The FP values were obtained 30 minutes after incubation. For the F559K and F559R mutants, we were not able to determine the EC85 values and therefore used 2 µM of these proteins for the assays in Fig. 4B. N.D., not determined. […]
# PBD1 F559K mutant = target: T3, PBD1 F559K mutant (Homo sapiens, UniProt P53350, F559K); assay: FP-based binding/inhibition assay, PBD1 F559K; conditions: PBD1 F559K, 2 µM protein
# T3 construct: constructs expressing PBD1 (residues 345–603) WT (pKM7650); His; TEV site (N); made in house; host or cells: bacteria (E. coli)
# T3 sequence (P53350 345-603 F559K): as the sequence (P53350 345-603 F559R) above, with R215K counted along it
# Experimental: as §2, §3
# Plk1 PBD (PBD1) = target: T4, Plk1 PBD (PBD1) (Homo sapiens, UniProt P53350); assay: FP-based inhibition assay, PBD1; assay type: binding
# T4 construct: constructs expressing PBD1 (residues 345–603) WT (pKM7650); His; TEV site (N); made in house; host or cells: bacteria (E. coli)
# T4 sequence (P53350 345-603): as the sequence (P53350 345-603 F559R) above, with R215F counted along it
# Experimental: as §1
# human His-Plk1 = target: T5, human His-Plk1 (Homo sapiens, UniProt P53350); assay: In vitro Plk1 kinase assay (casein, 32P); assay type: biochemical; conditions: casein substrate
# T5 construct: His (N); purchased Sino Biological; host or cells: Sf9
# T5 sequence (P53350 whole entry): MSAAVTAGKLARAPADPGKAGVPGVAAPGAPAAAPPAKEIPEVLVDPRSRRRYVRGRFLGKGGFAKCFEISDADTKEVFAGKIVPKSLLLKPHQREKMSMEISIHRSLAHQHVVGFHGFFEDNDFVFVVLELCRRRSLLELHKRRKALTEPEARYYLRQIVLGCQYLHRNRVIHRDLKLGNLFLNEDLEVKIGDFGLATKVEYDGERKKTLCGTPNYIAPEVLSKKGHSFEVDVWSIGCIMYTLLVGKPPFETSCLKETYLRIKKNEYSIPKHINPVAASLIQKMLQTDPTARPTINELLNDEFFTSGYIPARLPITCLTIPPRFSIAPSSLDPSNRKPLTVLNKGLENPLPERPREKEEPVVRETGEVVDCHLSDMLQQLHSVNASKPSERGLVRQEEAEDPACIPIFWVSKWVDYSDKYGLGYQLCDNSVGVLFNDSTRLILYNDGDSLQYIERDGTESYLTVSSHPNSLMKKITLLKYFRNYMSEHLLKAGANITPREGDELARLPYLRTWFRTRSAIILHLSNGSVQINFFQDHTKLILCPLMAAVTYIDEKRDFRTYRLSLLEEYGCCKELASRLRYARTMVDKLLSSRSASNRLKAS
# Experimental: Kinase reactions were carried out in two steps. First, Sf9-purified 0.2 µg of human His-Plk1 (Sino Biological) was preincubated in a kinase cocktail [50 mM Tris-Cl (pH 7.5), 10 mM MgCl2, 2 mM dithiothreitol, 2 mM EGTA, and 27 mM p-nitrophenylphosphate] in the presence of either Allopole-A or p-13mer PBIP peptide for 20 min at 25 °C. The samples were then added with 1 µg of dephosphorylated casein (Sigma) and 1.25 µM of ATP (1.25 µCi of [γ^32P] ATP, 1Ci = 37 GBq) and reacted for additional 30 min at 30 °C. The reactions were terminated by the addition of 5× Laemmli SDS sample buffer, separated by 10% SDS-PAGE, and analyzed by autoradiography. To quantify the γ^32P signals, appropriate bands were excised from dried SDS-PAGE gels and analyzed by a liquid scintillation counter (Beckman model LS 6500).
# [1] = system: mGFP-Plk1 F559D at centrosomes, U2OS cells; assay: Confocal quantification of Pendo-mGFP-Plk1 F559D in U2OS cells (siPlk1); assay type: cell-based; conditions: U2OS siPlk1, 8 μM, 2 or 16 h
# Experimental: To corroborate the importance of the F559 residue for Allopole-A binding, U2OS cells expressing endogenous promoter (i.e., Pendo)-controlled mGFP-Plk1 WT or F559D mutant were depleted of endogenous Plk1 by RNAi for 48 h (SI Appendix, Fig. S4C), treated with control DMSO or 8 μM of Allopole for 2 or 16 h, and fixed (SI Appendix, Fig. S4D). Afterward, the level of mGFP fluorescence was quantified using confocal microscopy (Fig. 4 C and D). As expected from the results shown in Fig. 1 C and D, Allopole delocalized mGFP-Plk1 WT from centrosomes within 2 h after treatment, and this effect was sustained for up to 16 h. […] This could be attributable to the fact that unlike PBIP1, which binds to PBD1 through the self-priming and binding mechanism ([49]), Bub1, BubR1, and likely Cdc25C require Cdc2-dependent priming phosphorylation to interact with PBD1 ([42]–[44]). […]
# Confocal images of unsaturated fluorescence signals were acquired under the same laser intensity at the 12-bit resolution. Fluorescence intensities for identifiable centrosome and kinetochore signals were quantified after the maximum-intensity projection of z-stacks using the Zeiss ZEN v2.1 software (Carl Zeiss Microscopy, LLC). Data were quantified from three independent experiments.
# [2] = Solubility in PBS (imaging of insoluble particles, dynamic light scattering); assay type: physicochemical; conditions: PBS buffer (pH 7.4)
# Experimental: All samples were analyzed after adjusting the concentration to 100 μM solution in the PBS buffer (pH 7.4) containing 1% DMSO. The measurements were carried out at 25 °C using the DynaPro NanoStar system (Wyatt Technology). The intensity of the scattered light was measured as a function of time, and the resulting data were used to calculate the size and distribution of the particles in the sample. Collected data were analyzed using the DYNAMICS software to calculate the mean size and polydispersity index of the particles in the sample. At least three repeat measurements were performed to ensure that the results were accurate and reproducible.
# Fig. S1. Solubility and activity of Allopole and its related compounds. (A) Images showing insoluble
# particles of 200 µM of the indicated compounds dissolved in the PBS buffer. The aggregates of […]
Structure (SMILES),PBD2 IC50 ± SD (Plk2 PBD (PBD2)),Inhibition of FITC-phosphopeptide binding (in words) (PBD1 F559R mutant),Inhibition of FITC-phosphopeptide binding (in words) (PBD1 F559K mutant),"IC50 (Plk1 PBD (PBD1); FP, bacterially expressed purified PBD, FITC-ligand 15 nM, PBD at EC85, read-out: PBD1 IC50 ± SD)",Inhibition of FITC-phosphopeptide binding (in words) (Plk1 PBD (PBD1); PBD1 WT at EC85),Effect on His-Plk1 kinase activity in vitro (in words) (human His-Plk1),Level of centrosome-localized mGFP-Plk1 F559D (in words) [1],Solubility (in words) [2]
O=c1c2sc(Cl)cc2n2c(=S)[nH]nc2n1CC1CC1 [Allopole-A],N. S.,failed to inhibit,failed to inhibit,2.5 nM and 2.53 nM,effectively inhibited PBD1 WT,significantly inhibited Plk1 activity,–,–
Cn1cnc([N+](=O)[O-])c1Sc1nnc2n(CC3CC3)c(=O)c3sc(Cl)cc3n12 [Allopole],–,–,–,–,–,–,failed to alter the level,greatly increased solubility
